In article PMC11222147, “Host defence peptide plectasin targets bacterial cell wall precursor lipid II by a calcium-sensitive supramolecular mechanism” (Nature Microbiology, 2024):

What was measured:
S. pneumoniae ATCC6305 = test: MIC assays under standard conditions; assay type: cell-based, Streptococcus pneumoniae; details: Supplementary Table 1; cation-adjusted MHB + 5% lysed horse blood, 5% CO2, 20–24 h
Procedure, shortened: (§1)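 Broth microdilution in cation-adjusted MHB, inoculum from OD600 0.5 TSB culture diluted 100-fold, 37 °C with shaking. Streptococci: 5% lysed horse blood, 5% CO2, MIC read visually at 20–24 h; S. simulans read at 16–20 h.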

S. pneumoniae serotype 8 = test: MIC assays under standard conditions; assay type: cell-based, Streptococcus pneumoniae; details: Supplementary Table 1; cation-adjusted MHB + 5% lysed horse blood, 5% CO2, 20–24 h
Procedure, shortened: as §1

S. simulans = test: DPH anisotropy membrane fluidity measurements; assay type: cell-based, Staphylococcus simulans; details: intact S. simulans cells, 1 µM plectasin, 37 °C, biological triplicates
Experimental: Preparation of S. simulans stock solutions was done as described above for bacterial permeabilization in PBS. About 1 ml of a cell suspension of OD600 = 0.1 in PBS was treated with 1 µM plectasin and incubated at 37 °C. All assays were performed on a Cary Eclipse (FL0904M005) fluorometer fitted with a manual polarizer accessory (Varian). Measurements were conducted at 37 °C under constant stirring in a 4 × 10 mm quartz cuvette. About 10 µM DPH was added from a 1 mM stock in dimethyl sulfoxide (bringing the final dimethyl sulfoxide concentration to 1 vol%) and incubated for 5 min. Fluorescence was excited with 380 nm light (10 nm slit) and recorded between 430 and 520 nm (10 nm slit) with 0.5 s averaging time and data interval of 1.66 nm per point. Fluorescence anisotropy was calculated using the maximum intensity of each spectrum according to the following equation (where IVV and IVH represent the fluorescence intensity using parallel and orthogonal excitation and emission polarization filters, respectively): r=IVV−IVH/IVV+2IVH

[1] = Carboxyfluorescein leakage from LUVs
Experimental: Vesicle leakage assays were conducted using LUVs filled with carboxyfluorescein. Carboxyfluorescein solutions were made by suspending ~50 mM carboxyfluorescein in H2O and adjusting the pH to ~7.2 using 10 M NaOH. The resulting solution was diluted with H2O to match the osmolarity of the outside buffer, which consisted of 10 mM Tris and 100 mM NaCl, at pH = 7.2. LUVs were prepared as described above. Non-enclosed carboxyfluorescein was removed using a Sephadex G50 column equilibrated in outside buffer. Measurements were conducted on a Cary Eclipse spectrophotometer at 20 °C under constant stirring by monitoring the fluorescence intensity at 515 nm (excitation at 492 nm, 5 nm slit width, 0.1 s averaging time). A total lipid concentration of 25 µM was used for all experiments. Fluorescence traces were normalized using the fluorescence baseline at the start as 0% and fluorescence after treatment with 0.1 vol% Triton-X100 as 100%.

In the case of `CC[C@H](C)[C@@H]1NC(=O)[C@H](CO)NC(=O)[C@H](CCCCN)NC(=O)[C@@H]2CSSC[C@@H](C(=O)N[C@@H](Cc3ccc(O)cc3)C(=O)O)NC(=O)[C@H](CCCCN)NC(=O)[C@@H]3CSSC[C@H](NC(=O)[C@H](CCC(N)=O)NC(=O)[C@H](CCSC)NC(=O)[C@H](CC(=O)O)NC(=O)[C@H](CC(=O)O)NC(=O)[C@H](CCC(=O)O)NC(=O)[C@H](CC(=O)O)NC(=O)[C@H](Cc4c[nH]c5ccccc45)NC(=O)[C@@H]4CCCN4C(=O)CNC(=O)[C@H](CC(N)=O)NC(=O)[C@@H](NC(=O)CNC(=O)[C@H](Cc4ccccc4)NC(=O)CN)CSSC[C@H](NC(=O)[C@H](Cc4ccc(O)cc4)NC(=O)CNC(=O)CNC(=O)[C@H](CCCCN)NC(=O)[C@H](Cc4ccc(O)cc4)NC(=O)CNC(=O)[C@H](CCCCN)NC1=O)C(=O)N[C@@H](C)C(=O)N[C@@H](CCCCN)C(=O)NCC(=O)NCC(=O)N[C@@H](Cc1ccccc1)C(=O)N[C@@H](C(C)C)C(=O)N3)C(=O)N[C@@H](Cc1c[nH]cn1)C(=O)N[C@@H](CC(N)=O)C(=O)N[C@@H](Cc1c[nH]cn1)C(=O)N2` [Plectasin wt], the “Minimum inhibitory concentration, S. pneumoniae ATCC6305” value (S. pneumoniae ATCC6305) is reported as no more than 0.78 µg/mL, the “Minimum inhibitory concentration, S. pneumoniae serotype 8” value (S. pneumoniae serotype 8) is reported as 1,56 μg/mL and the “DPH fluorescence anisotropy (membrane fluidity)” value (S. simulans) is reported as “decrease in the fluorescence anisotropy”. For the same molecule, the “carboxyfluorescein leakage (in words)” value ([1]; DOPC Lipid II vesicles, in the presence of calcium) was “efficiently permeabilized” and the “carboxyfluorescein leakage (in words)” value ([1]; phospholipids native to gram-positive bacteria included in the membrane, with calcium) was “virtually no leakage”.
